Data reported in ChEMBL document CHEMBL5214960 (J Med Chem, 2022).
Changes are numbered by the printed parent chain. In brackets after ≈: the same amount, converted by molar mass.

What was measured:
[1] = Aqueous solubility of compound at pH 6 by HPLC analysis; format: physicochemical; conditions: buffer
CYP2D6 = CYP2D6 (Homo sapiens, UniProt P10635); assay: Inhibition of human hepatic CYP2D6 using bufuralol HCL as substrate measured after 3 mins by LC-MS analysis relative to control; format: ADME, tissue-based; parameters: concentration or dose not given beside the values; conditions: human hepatic CYP2D6 (liver), probe bufuralol HCl
CYP2C9 = CYP2C9 (Homo sapiens, UniProt P11712); assay: Inhibition of human hepatic CYP2C9 using diclofenac as substrate measured after 10 mins by LC-MS analysis relative to control; format: ADME, tissue-based; parameters: concentration or dose not given beside the values; conditions: human hepatic CYP2C9 (liver), probe diclofenac
CYP3A4 = CYP3A4 (Homo sapiens, UniProt P08684); assay: Inhibition of human hepatic CYP3A4 using midazolam as substrate measured after 3 mins by LC-MS analysis relative to control; format: ADME, tissue-based; parameters: concentration or dose not given beside the values; conditions: human hepatic CYP3A4 (liver), probe midazolam
[2] = Metabolic stability in human hepatic microsome at 4 uM measured after 30 mins by LC-MS analysis; format: ADME; conditions: liver microsomes, read-out: Stability
[3] = Metabolic stability in mouse hepatic microsome at 4 uM measured after 30 mins by LC-MS analysis; format: ADME; conditions: liver microsomes, read-out: Stability
[4] = Metabolic stability in dog hepatic microsome at 4 uM measured after 30 mins by LC-MS analysis; format: ADME, Canis lupus familiaris; conditions: liver microsomes, read-out: Stability
[5] = Plasma protein binding in mouse assessed as unbound fraction measured after 4.5 hrs by LC-MS/MS analysis; format: ADME, cell-free
[6] = Inhibition of PTP-Meg2 (unknown origin); parameters: species or system Homo sapiens
[7] = molecular target: T1, Low molecular weight phosphotyrosine protein phosphatase (Mus musculus, UniProt Q9D358); assay: Inhibition of N-terminal His-tagged full length mouse LMW-PTP expressed in Escherichia coli BL21(DE3) by […] analysis
T1 sequence (Q9D358 whole entry): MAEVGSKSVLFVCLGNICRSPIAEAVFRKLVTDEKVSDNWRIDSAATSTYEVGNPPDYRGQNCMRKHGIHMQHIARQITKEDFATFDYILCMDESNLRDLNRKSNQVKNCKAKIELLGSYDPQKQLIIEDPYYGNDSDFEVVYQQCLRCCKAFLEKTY

[8] = AUC(0 to 8 hrs) in CD-1 mouse plasma at 10 mg/kg, po measured after 8 hrs by LC-MS/MS analysis; format: ADME, organism-based; parameters: dose 10 mg/kg, time 8 hrs, route po; conditions: in vivo
[9] = AUC(0 to 8 hrs) in CD-1 mouse plasma at 2 mg/kg, iv measured after 8 hrs by LC-MS/MS analysis; format: ADME, organism-based; parameters: dose 2 mg/kg, time 8 hrs, route iv; conditions: in vivo
[10] = Cmax in CD-1 mouse plasma at 10 mg/kg, po measured after 8 hrs by LC-MS/MS analysis; format: ADME, organism-based; parameters: dose 10 mg/kg, time 8 hrs, route po; conditions: mouse, in vivo, 8 h
[11] = Cmax in CD-1 mouse plasma at 2 mg/kg, iv measured after 8 hrs by LC-MS/MS analysis; format: ADME, organism-based; parameters: time 8 hrs, dose 2 mg/kg, route iv
[12] = Unbound Cmax in plasma of CD-1 mouse at 10 mg/kg, po measured after 8 hrs by LC-MS/MS analysis; format: ADME, organism-based; conditions: in vivo
[13] = Unbound Cmax in plasma of CD-1 mouse at 2 mg/kg, iv measured after 8 hrs by LC-MS/MS analysis; format: ADME, organism-based; conditions: in vivo
[14] = Volume of distribution at steady state in CD-1 mouse plasma at 2 mg/kg, iv measured after 8 hrs by LC-MS/MS analysis; format: ADME, organism-based; conditions: in vivo
[15] = Half life in CD-1 mouse plasma at 2 mg/kg, iv measured after 8 hrs by LC-MS/MS analysis; format: ADME, organism-based; conditions: mouse, in vivo, iv, 2 mg/kg, 8 h
[16] = Half life in CD-1 mouse plasma at 10 mg/kg, po measured after 8 hrs by LC-MS/MS analysis; format: ADME, organism-based; conditions: in vivo
[17] = Oral bioavailability in CD-1 mouse plasma at 10 mg/kg measured after 8 hrs by LC-MS/MS analysis; format: ADME, organism-based; conditions: CD-1, mouse, plasma
[18] = AUC(0 to 12 hrs) in Sprague-Dawley rat plasma at 30 mg/kg, po measured after 24 hrs by LC-MS/MS analysis; format: ADME, organism-based; parameters: time 24 hrs, dose 30 mg/kg, route po; conditions: in vivo
[19] = Cmax in Sprague-Dawley rat plasma at 30 mg/kg, po measured after 24 hrs by LC-MS/MS analysis; format: ADME, organism-based; parameters: time 24 hrs, dose 30 mg/kg, route po; conditions: in vivo
[20] = Unbound Cmax in plasma of Sprague-Dawley rat at 30 mg/kg, po measured after 24 hrs by LC-MS/MS analysis; format: ADME, organism-based; conditions: in vivo
[21] = Tmax in Sprague-Dawley rat plasma at 30 mg/kg, po measured after 24 hrs by LC-MS/MS analysis; format: ADME, organism-based; conditions: in vivo
[22] = Half life in Sprague-Dawley rat plasma at 30 mg/kg, po measured after 24 hrs by LC-MS/MS analysis; format: ADME, organism-based; conditions: in vivo
[23] = molecular target: T2, Low molecular weight phosphotyrosine protein phosphatase (Rattus norvegicus, UniProt P41498); assay: Inhibition of N-terminal His-tagged full length rat LMW-PTP expressed in Escherichia coli BL21(DE3)
T2 sequence (P41498 whole entry): T1 sequence (Q9D358 whole entry) with K35N, R65K, K80R, Y158H

[24] = molecular target: T3, Low molecular weight phosphotyrosine protein phosphatase (Homo sapiens, UniProt P24666); assay: Inhibition of His-tagged human LMW-PTP expressed in Escherichia coli BL21 using pNPP as substrate incubated for 10 mins by microplate reader based spectrophotometric analysis
T3 sequence (P24666 whole entry): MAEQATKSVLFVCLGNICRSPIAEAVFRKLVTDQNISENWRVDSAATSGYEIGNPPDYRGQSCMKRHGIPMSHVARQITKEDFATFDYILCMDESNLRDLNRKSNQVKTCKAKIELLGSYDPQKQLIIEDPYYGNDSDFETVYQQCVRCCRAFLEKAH

Sequence of CYP2C9 (P11712 whole entry): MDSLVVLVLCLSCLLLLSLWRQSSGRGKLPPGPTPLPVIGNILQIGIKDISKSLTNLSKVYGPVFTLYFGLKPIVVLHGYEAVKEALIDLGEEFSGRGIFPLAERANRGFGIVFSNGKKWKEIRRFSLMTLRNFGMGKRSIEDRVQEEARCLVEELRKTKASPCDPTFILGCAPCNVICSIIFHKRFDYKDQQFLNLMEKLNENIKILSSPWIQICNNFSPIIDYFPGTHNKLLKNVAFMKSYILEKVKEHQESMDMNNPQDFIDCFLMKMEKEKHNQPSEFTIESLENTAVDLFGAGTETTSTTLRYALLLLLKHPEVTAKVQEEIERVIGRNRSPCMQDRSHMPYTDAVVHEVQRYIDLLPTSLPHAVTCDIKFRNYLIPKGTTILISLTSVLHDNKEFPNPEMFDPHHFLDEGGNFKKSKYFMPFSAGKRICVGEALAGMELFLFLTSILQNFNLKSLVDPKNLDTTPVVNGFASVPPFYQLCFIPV
Sequence of CYP2D6 (P10635 whole entry): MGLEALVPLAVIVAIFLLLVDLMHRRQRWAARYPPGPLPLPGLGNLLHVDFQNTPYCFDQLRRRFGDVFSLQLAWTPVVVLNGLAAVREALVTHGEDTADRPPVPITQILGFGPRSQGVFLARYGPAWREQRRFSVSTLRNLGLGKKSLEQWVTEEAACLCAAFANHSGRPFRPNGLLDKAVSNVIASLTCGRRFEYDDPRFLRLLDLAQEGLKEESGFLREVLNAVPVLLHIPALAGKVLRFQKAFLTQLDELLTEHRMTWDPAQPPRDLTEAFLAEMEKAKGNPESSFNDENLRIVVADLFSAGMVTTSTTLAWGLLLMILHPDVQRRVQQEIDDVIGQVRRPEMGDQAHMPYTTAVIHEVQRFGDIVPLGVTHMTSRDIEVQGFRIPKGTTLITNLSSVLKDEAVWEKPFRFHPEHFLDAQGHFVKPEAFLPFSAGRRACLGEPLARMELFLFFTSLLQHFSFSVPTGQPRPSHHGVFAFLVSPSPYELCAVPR
Sequence of CYP3A4 (P08684 whole entry): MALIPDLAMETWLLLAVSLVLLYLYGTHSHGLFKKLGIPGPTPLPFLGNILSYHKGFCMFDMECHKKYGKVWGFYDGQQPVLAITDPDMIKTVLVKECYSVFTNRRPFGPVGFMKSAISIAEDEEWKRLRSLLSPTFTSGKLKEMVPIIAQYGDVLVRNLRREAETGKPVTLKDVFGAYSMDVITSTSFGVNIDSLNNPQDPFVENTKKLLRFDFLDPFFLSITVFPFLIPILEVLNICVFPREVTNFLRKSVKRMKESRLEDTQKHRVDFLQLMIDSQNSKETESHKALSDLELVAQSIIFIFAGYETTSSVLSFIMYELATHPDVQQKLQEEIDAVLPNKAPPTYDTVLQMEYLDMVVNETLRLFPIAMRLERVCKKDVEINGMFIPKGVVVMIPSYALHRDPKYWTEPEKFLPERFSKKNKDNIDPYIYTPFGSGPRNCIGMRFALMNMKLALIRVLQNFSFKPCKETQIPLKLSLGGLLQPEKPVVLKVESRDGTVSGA

SMILES: O=C(Nc1nc2ccccc2s1)C(c1ccccc1)S(=O)(=O)O (configuration not stated)
- solubility [1]: 660 µg/mL (≈ 1890 µM)
- inhibition at 0.05 h (CYP2D6): 5%
- inhibition at 10 min (CYP2C9): 69%
- inhibition at 0.05 h (CYP3A4): 9%
- remaining at 0.5 h, 4 µM [2]: 54%
- remaining at 0.5 h, 4 µM [3]: 17%
- remaining at 0.5 h, 4 µM [4]: 61%
- Fu [5]: < 0.006

SMILES: Cc1c(Br)cc(NC(=O)C(c2ccccc2)S(=O)(=O)O)cc1Br (configuration not stated)
- IC50 [6]: > 200 µM
- IC50 [7]: 0.2 µM
- solubility [1]: 920 µg/mL (≈ 1990 µM)
- inhibition at 0.05 h (CYP2D6): 1%
- inhibition at 10 min (CYP2C9): 79%
- inhibition at 0.05 h (CYP3A4): 0%
- remaining at 0.5 h, 4 µM [2]: 34%
- remaining at 0.5 h, 4 µM [3]: 50%
- remaining at 0.5 h, 4 µM [4]: 59%
- Fu [5]: < 0.006
- AUC [8]: 5.24 µM·h
- AUC [9]: 2.09 µM·h
- Cmax [10]: 1.02 µM
- Cmax [11]: 4.94 µM
- fCmax [12]: < 6 nM
- fCmax [13]: < 30 nM
- Vdss [14]: 3.4 L/kg
- t1/2 [15]: 2 h
- t1/2 [16]: 5.2 h
- bioavailability [17]: 50%
- AUC [18]: 37.1 µM·h
- Cmax [19]: 6.12 µM
- fCmax [20]: < 43 nM
- Tmax [21]: 2.7 h
- t1/2 [22]: 3 h
- IC50 [23]: 0.3 µM

SMILES: CS(=O)(=O)c1ccc2nc(NC(=O)CS(=O)(=O)O)sc2c1
- IC50 [24]: 0.3 µM

SMILES: Cc1cc([N+](=O)[O-])c2nc(NC(=O)CS(=O)(=O)O)sc2c1
- IC50 [24]: 0.4 µM

SMILES: Cc1c(Br)cc(NC(=O)[C@@H](c2cncs2)S(=O)(=O)O)cc1Br
- IC50 [24]: 11.4 µM

SMILES: O=C(Nc1nccs1)NS(=O)(=O)O
- IC50 [24]: 0.049 µM

SMILES: O=C(CS(=O)(=O)O)Nc1nc2ccc(C(F)(F)F)cc2s1
- IC50 [24]: 0.6 µM

SMILES: O=C(CS(=O)(=O)O)Nc1cnc(N2CCOCC2)c(Br)c1
- IC50 [24]: 1.2 µM

SMILES: O=C(CS(=O)(=O)O)Nc1ccccc1
- IC50 [24]: > 100 µM

SMILES: O=C(CS(=O)(=O)O)Nc1nc2cc([N+](=O)[O-])ccc2s1
- IC50 [24]: 0.4 µM

SMILES: O=C(CS(=O)(=O)O)Nc1ncc(-c2ccccc2)s1
- IC50 [24]: 1.5 µM

SMILES: O=C(CS(=O)(=O)O)Nc1nccs1
- IC50 [24]: 12.2 µM

SMILES: O=C(CS(=O)(=O)O)Nc1nc2ccc(C(=O)N3CCCC3)cc2s1
- IC50 [24]: 0.3 µM

SMILES: O=C(CS(=O)(=O)O)Nc1cc(Br)cc(C(F)(F)F)c1
- IC50 [24]: 5.2 µM

SMILES: Cc1ccc2nc(NC(=O)CS(=O)(=O)O)sc2c1
- IC50 [24]: 1.7 µM
